Assays:
JAK1 = JAK1 (Homo sapiens, UniProt P23458); experiment: JAK kinase activity inhibition, TR-FRET (JAK1); type: biochemical; details: TR-FRET kinase assay
Outline: (§1)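 TR-FRET read (≈620 and 665 nm) after EDTA quench and 1-24 h antibody detection at RT. Kinase 0.1-20 nM, peptide substrate + ATP, 0.5-5 h RT reaction in HEPES 50-250 mM, MgCl2 5-20 mM. IC50 from 4-parameter fit vs DMSO and no-kinase controls.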

TYK2 = TYK2 (Homo sapiens, UniProt P29597); experiment: JAK kinase activity inhibition, TR-FRET (TYK2); type: biochemical; details: TR-FRET kinase assay
Outline: as §1

[1] = tested on: JAK-STAT signal pathway of U266 cells; experiment: Inhibition of cellular JAK-STAT signal pathway (STAT3 phosphorylation) in U266 cells; type: cell-based, human
Protocol: The objective of the test is to test the inhibitory activity of the compound on the cellular JAK-STAT signaling pathway.
U266 cell line was used in this experiment, by activating the JAK-STAT signaling pathway through INF-a stimulation, the inhibitory activity of the compound on its downstream STAT3 phosphorylation was detected, and the half inhibitory concentration IC50 of the compound on the JAK-STAT signaling pathway activity was obtained.
3-12 μL of U266 cell line was spread into the 384-well detection plate, and the number of cells in each well was 100-300 K, followed by addition of 2 μL of the compound solution serially diluted. The plate was incubated for 2 hours with shaking at 350 rpm at room temperature. After 2 hours, 2 μL of INF-a with a final concentration of 1000 U/mL was added. The plate was shaken at room temperature for 15 minutes. 2-5 μL (5×) LANCE Ultra Lysis Buffer 2 solution was added and the plate was shaken at room temperature for 2 hours. After 2 hours, 5 μL of LANCE Ultra Eu-labeled Anti-STAT3 Antibody (PerkinElmer) with a final concentration of 0.5 nM and LANCE Ultra ULight-labeled Anti-STAT3 Antibody (PerkinElmer) with a final concentration of 5 nM were added, and the plate was incubated overnight at room temperature. The fluorescence signal value at 665 nm of each well was measured with the microplate reader, and the inhibition rate was calculated from the fluorescence signal value. According to the inhibition rate of different concentrations, the IC50 of the compound was obtained by curve fitting.
The percentage inhibition data of the wells treated with the compound was calculated with the positive control wells (DMSO control wells) and negative control wells (no kinase added) on the plate {% inhibition rate=100-[(test compound value-negative control value)]/(Positive control value-negative control value)×100}. IC50 value was calculated by using GraphPad prism to fit the data of different concentrations and corresponding percentage inhibition rates to a 4-parameter non-linear logic formula.

[2] = Homo sapiens, U-266, INF-a 1000 U/mL stimulation

Chain of JAK1 (P23458 whole entry): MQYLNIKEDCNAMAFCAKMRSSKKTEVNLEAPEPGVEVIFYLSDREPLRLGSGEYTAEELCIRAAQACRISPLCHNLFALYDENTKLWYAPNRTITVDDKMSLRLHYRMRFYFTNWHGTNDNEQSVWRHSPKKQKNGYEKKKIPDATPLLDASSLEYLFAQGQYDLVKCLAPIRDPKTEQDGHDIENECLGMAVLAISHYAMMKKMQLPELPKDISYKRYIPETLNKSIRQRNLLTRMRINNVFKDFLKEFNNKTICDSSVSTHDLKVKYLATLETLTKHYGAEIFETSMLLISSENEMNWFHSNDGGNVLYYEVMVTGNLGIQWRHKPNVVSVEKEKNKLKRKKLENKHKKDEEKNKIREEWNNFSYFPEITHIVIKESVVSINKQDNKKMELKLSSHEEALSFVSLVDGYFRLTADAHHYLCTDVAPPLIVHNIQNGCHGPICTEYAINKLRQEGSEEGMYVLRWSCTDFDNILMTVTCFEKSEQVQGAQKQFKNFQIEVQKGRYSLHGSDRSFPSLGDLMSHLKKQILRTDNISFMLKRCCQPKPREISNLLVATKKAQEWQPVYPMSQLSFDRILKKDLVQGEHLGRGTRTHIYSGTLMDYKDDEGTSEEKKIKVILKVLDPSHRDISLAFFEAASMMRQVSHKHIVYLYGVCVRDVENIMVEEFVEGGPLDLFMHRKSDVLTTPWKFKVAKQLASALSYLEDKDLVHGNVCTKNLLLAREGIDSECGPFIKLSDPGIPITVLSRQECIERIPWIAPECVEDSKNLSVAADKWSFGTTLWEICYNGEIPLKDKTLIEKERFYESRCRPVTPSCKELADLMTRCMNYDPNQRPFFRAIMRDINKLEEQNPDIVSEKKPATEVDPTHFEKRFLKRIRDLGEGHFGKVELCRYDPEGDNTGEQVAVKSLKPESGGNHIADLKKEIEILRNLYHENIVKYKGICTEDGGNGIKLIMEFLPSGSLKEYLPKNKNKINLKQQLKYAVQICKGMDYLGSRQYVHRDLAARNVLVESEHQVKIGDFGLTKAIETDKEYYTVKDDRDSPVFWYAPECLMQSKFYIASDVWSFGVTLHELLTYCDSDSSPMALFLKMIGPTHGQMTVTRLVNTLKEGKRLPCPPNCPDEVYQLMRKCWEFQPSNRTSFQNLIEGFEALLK
Chain of TYK2 (P29597 whole entry): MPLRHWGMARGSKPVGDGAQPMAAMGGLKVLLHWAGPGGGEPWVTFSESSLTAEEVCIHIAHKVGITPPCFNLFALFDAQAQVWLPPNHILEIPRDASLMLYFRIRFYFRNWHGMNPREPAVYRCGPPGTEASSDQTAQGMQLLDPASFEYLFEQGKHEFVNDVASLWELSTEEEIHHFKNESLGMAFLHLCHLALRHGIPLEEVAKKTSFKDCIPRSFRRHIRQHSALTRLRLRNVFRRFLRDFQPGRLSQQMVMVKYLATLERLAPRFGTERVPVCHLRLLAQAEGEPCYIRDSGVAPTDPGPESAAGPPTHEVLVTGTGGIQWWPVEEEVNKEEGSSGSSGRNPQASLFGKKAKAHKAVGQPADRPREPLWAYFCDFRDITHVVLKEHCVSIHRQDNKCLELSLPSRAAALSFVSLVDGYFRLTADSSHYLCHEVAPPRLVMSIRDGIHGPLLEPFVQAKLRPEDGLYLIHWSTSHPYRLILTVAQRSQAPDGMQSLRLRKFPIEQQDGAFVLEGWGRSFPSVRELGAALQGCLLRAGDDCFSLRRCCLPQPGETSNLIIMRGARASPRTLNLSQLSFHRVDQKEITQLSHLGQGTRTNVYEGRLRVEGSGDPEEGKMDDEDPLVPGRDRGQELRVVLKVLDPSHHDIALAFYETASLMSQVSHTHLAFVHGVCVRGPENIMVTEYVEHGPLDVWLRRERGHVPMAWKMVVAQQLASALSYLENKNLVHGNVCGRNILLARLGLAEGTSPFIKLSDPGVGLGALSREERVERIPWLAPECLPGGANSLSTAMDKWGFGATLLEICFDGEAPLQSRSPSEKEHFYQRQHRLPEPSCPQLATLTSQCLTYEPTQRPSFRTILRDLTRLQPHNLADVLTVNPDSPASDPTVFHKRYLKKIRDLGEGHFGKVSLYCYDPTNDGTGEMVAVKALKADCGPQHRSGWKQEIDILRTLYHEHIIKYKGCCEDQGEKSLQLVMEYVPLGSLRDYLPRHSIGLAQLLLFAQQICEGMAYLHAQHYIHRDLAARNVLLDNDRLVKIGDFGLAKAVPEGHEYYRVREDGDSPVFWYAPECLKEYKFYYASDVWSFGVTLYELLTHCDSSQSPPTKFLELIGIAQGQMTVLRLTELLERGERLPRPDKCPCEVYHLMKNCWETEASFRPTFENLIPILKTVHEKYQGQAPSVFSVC

Molecule Cc1cc(Nc2nc(N(C)[C@@H]3C[C@H]4CC[C@@H](C3)N4S(=O)(=O)N3CC(C#N)C3)nc3sc(C)cc23)n[nH]1 [Embodiment 240, 1-(((3-exo)-3-(methyl(6-methyl-4-((5-methyl-1H-pyrazol-3-yl)amino)thieno[2,3-d]pyrimidin-2-yl)amino)-8-azabicyclo[3.2.1]oct-8-yl)sulfonyl)azetindin-3-formonitrile] has an IC50 (JAK1) of 0.49 nM, an IC50 (TYK2) of 0.68 nM and an IC50 [1, 2] of 14.4 nM.

Work on Cc1cc(Nc2nc(N[C@@H]3C[C@H]4CC[C@@H](C3)N4C(=O)CN(C)C)nc3ccsc23)n[nH]1 [Embodiment 287, 2-(dimethylamine)-1-((3-exo)-3-((4-((5-methyl-1H-pyrazol-3-yl)amino)thieno[3,2-d]pyrimidin-2-yl)amino)-8-azabicyclo[3.2.1]oct-8-yl)ethane-1-one] yielded an IC50 (JAK1) of 0.58 nM, an IC50 (TYK2) of 4.21 nM and an IC50 [1, 2] of 10.5 nM.

Cc1cc(Nc2nc(N[C@@H]3C[C@H]4CC[C@@H](C3)N4S(=O)(=O)N3CC(C#N)C3)nc3cccnc23)n[nH]1 [Embodiment 220, 1-(((3-exo)-3-((4-((5-methyl-1H-pyrazol-3-yl)amino)pyrido[3,2-d]pyrimidin-2-yl)amino)-8-azabicyclo[3.2.1]oct-8-yl)sulfonyl)azetindin-3-formonitrile] was tested, and the IC50 (JAK1) was 0.67 nM, the IC50 (TYK2) was 4.27 nM and the IC50 [1, 2] was 10.2 nM.

In the case of Cc1cc(Nc2nc(N[C@@H]3C[C@H]4CCC[C@@H](C3)N4C(=O)CN3CCN(C)CC3)nc3sccc23)n[nH]1 [Embodiment 258, 1-((3-exo)-3-((4-((5-methyl-1H-pyrazol-3-yl)amino)thieno[2,3-d]pyrimidin-2-yl)amino)-9-azabicyclo[3.3.1]non-9-yl)-2-(4-methylpiperazin-1-yl)ethane-1-one], the IC50 (JAK1) is reported as 0.27 nM, the IC50 (TYK2) is reported as 0.61 nM and the IC50 [1, 2] is reported as 32.7 nM.

For Cc1cc(Nc2cc3nccnc3c(N[C@@H]3C[C@H]4CC[C@@H](C3)N4CCC#N)n2)n[nH]1 [Embodiment 88, 3-((3-exo)-3-((7-((5-methyl-1H-pyrazol-3-yl)amino)pyrido[3,4-b]pyrazin-5-yl)amino)-8-azabicyclo[3.2.1]oct-8-yl)propionitrile], the IC50 (JAK1) was 1.75 nM, the IC50 (TYK2) was 3.53 nM and the IC50 [1, 2] was 3.1 nM.

Work on Cc1cc(Nc2nc(N(C)[C@@H]3C[C@H]4CC[C@@H](C3)N4C(=O)CN3CCOCC3)nc3sccc23)n[nH]1 [Embodiment 245, 1-((3-exo)-3-(methyl(4-((5-methyl-1H-pyrazol-3-yl)amino)thieno[2,3-d]pyrimidin-2-yl)amino)-8-azabicyclo[3.2.1]oct-8-yl)-2-morpholinoethane-1-one] yielded an IC50 (JAK1) of 2.77 nM, an IC50 (TYK2) of 2.76 nM and an IC50 ([1]; INF-a 1000 U/mL stimulation) of 16.7 nM.

With N#CCCN1[C@@H]2CCC[C@H]1C[C@H](Nc1nc(Nc3ncc(CO)s3)cc3ncccc13)C2 [Embodiment 163, 3-((3-exo)-3-((7-((5-(hydroxymethyl)thiazol-2-yl)amino)-1,6-diazanaphthalen-5-yl)amino)-9-azabicyclo[3.3.1]non-9-yl)propionitrile] the IC50 (JAK1) was 0.45 nM, the IC50 (TYK2) was 24.4 nM and the IC50 [1, 2] was 52.6 nM.

Cc1cc(Nc2nc(N[C@@H]3C[C@H]4CC[C@@H](C3)N4CCC#N)c3cccn3n2)n[nH]1 [Embodiment 72, 3-((3-exo)-3-((2-((5-methyl-1H-pyrazol-3-yl)amino)pyrrolo[2,1-f][1,2,4]triazin-4-yl)amino)-8-azabicyclo[3.2.1]oct-8-yl)propionitrile] gave an IC50 (JAK1) of 4.32 nM, an IC50 (TYK2) of 16 nM and an IC50 [1, 2] of 5.39 nM.

With Cc1cc(Nc2nc(NC3CCN(CCC#N)CC3)nc3ccccc23)n[nH]1 [Embodiment 310, 3-(4-((4-((5-methyl-1H-pyrazol-3-yl)amino)quinazolin-2-yl)amino)piperidin-1-yl)propionitrile] the IC50 (JAK1) was 8.67 nM, the IC50 (TYK2) was 0.26 nM and the IC50 [1, 2] was 5.41 nM.

With CCc1cc(Nc2cc3ncccc3c(N[C@@H]3C[C@H]4CC[C@@H](C3)N4CCC#N)n2)n[nH]1 [Embodiment 11, 3-((3-exo)-3-((7-((5-ethyl-1H-pyrazol-3-yl)amino)-1,6-diazanaphthalen-5-yl)amino)-8-azabicyclo[3.2.1]oct-8-yl)propionitrile] the IC50 (JAK1) was 0.3 nM, the IC50 (TYK2) was 9.13 nM and the IC50 [1, 2] was 4.77 nM.

Cc1cc(Nc2nc(O[C@@H]3C[C@H]4CC[C@@H](C3)N4CCC#N)nc3sccc23)n[nH]1 [Embodiment 279, 3-((3-exo)-3-((4-((5-methyl-1H-pyrazol-3-yl)amino)thieno[2,3-d]pyrimidin-2-yl)oxo)-8-azabicyclo[3.2.1]oct-8-yl)propionitrile] gave an IC50 (JAK1) of 0.24 nM, an IC50 (TYK2) of 0.66 nM and an IC50 [1, 2] of 2.2 nM.

Molecule Cc1cc(Nc2nc(N[C@@H]3C[C@H]4CC[C@@H](C3)N4CC(=O)N(C)C)nc3ccsc23)n[nH]1 [Embodiment 293, N,N-dimethyl-2-((3-exo)-3-((4-((5-methyl-1H-pyrazol-3-yl)amino)thieno[3,2-d]pyrimidin-2-yl)amino)-8-azabicyclo[3.2.1]oct-8-yl)acetamide] has an IC50 (JAK1) of 3.97 nM, an IC50 (TYK2) of 10.8 nM and an IC50 [1, 2] of 16.5 nM.

With OCc1cnc(Nc2cc3ncccc3c(N[C@@H]3C[C@H]4CC[C@@H](C3)N4CCF)n2)s1 [Embodiment 167, (2-((5-(((3-exo)-8-(2-fluoroethyl)-8-azabicyclo[3.2.1]oct-3-yl)amino)-1,6-diazanaphthalen-7-yl)amino)thiazol-5-yl)methanol] the IC50 (JAK1) was 2.55 nM, the IC50 (TYK2) was 7.28 nM and the IC50 [1, 2] was 14.8 nM.

With Cc1cc(Nc2nc(N[C@@H]3C[C@H]4CCC[C@@H](C3)N4C(=O)c3cccnc3)nc3sccc23)n[nH]1 [Embodiment 261, ((3-exo)-3-((4-((5-methyl-1H-pyrazol-3-yl)amino)thieno[2,3-d]pyrimidin-2-yl)amino)-9-azabicyclo[3.3.1]non-9-yl)(pyridin-3-yl)methanone] the IC50 (JAK1) was 0.04 nM, the IC50 (TYK2) was 5.58 nM and the IC50 [1, 2] was 10.6 nM.

Work on Cc1cc(Nc2cc3ncccc3c(N(C)[C@@H]3C[C@H]4CC[C@@H](C3)N4CCC#N)n2)n[nH]1 [Embodiment 111, 3-((3-exo)-3-(methyl(7-((5-methyl-1H-pyrazol-3-yl)amino)-1,6-diazanaphthalen-5-yl)amino)-8-azabicyclo[3.2.1]oct-8-yl)propionitrile] yielded an IC50 (JAK1) of 5.69 nM, an IC50 (TYK2) of 1.63 nM and an IC50 [1, 2] of 2.93 nM.

Cc1cc(Nc2nc(N[C@@H]3C[C@@H]4CN(CCC#N)C[C@@H]4C3)nc3sccc23)n[nH]1 [Embodiment 298, 3-(cis-5-((4-((5-methyl-1H-pyrazol-3-yl)amino)thieno[2,3-d]pyrimidin-2-yl)amino)hexahydrocyclopentadieno[c]pyrrole-2(1H)-yl)propionitrile] gave an IC50 (JAK1) of 0.67 nM, an IC50 (TYK2) of 22.8 nM and an IC50 [1, 2] of 1.86 nM.

Work on O=C(C(F)F)N1[C@@H]2CC[C@H]1C[C@H](Nc1nc(Nc3ncc(CO)s3)cc3ncccc13)C2 [Embodiment 166, 2,2-difluoro-1-((3-exo)-3-((7-((5-(hydroxymethyl)thiazol-2-yl)amino)-1,6-diazanaphthalen-5-yl)amino)-8-azabicyclo[3.2.1]oct-8-yl)ethane-1-one] yielded an IC50 (JAK1) of 0.19 nM, an IC50 (TYK2) of 9.31 nM and an IC50 [1, 2] of 26.7 nM.

Work on Cc1cc(Nc2nc(N[C@@H]3C[C@H]4CC[C@@H](C3)N4S(=O)(=O)N3CC(C#N)C3)nc3cc(F)ccc23)n[nH]1 [Embodiment 215, 1-(((3-exo)-3-((7-fluoro-4-((5-methyl-1H-pyrazol-3-yl)amino)quinazolin-2-yl)amino)-8-azabicyclo[3.2.1]oct-8-yl)sulfonyl)azetindin-3-formonitrile] yielded an IC50 (JAK1) of 0.12 nM, an IC50 (TYK2) of 0.27 nM and an IC50 [1, 2] of 24.1 nM.

With Cc1cc(Nc2nc(N[C@@H]3C[C@H]4CC[C@@H](C3)N4S(=O)(=O)N3CC(C#N)C3)nc3ccsc23)n[nH]1 [Embodiment 285] the IC50 (JAK1) was 0.17 nM, the IC50 (TYK2) was 0.51 nM and the IC50 [1, 2] was 42 nM.

For Cc1cc(Nc2nc(N[C@@H]3C[C@H]4CC[C@@H](C3)N4CCC#N)nc3cccnc23)n[nH]1 [Embodiment 174, 3-((3-exo)-3-((4-((5-methyl-1H-pyrazol-3-yl)amino)pyrido[3,2-d]pyrimidin-2-yl)amino)-8-azabicyclo[3.2.1]oct-8-yl)propionitrile], the IC50 (JAK1) was 2.73 nM, the IC50 (TYK2) was 1.88 nM and the IC50 [1, 2] was 0.42 nM.

Cc1cc(Nc2nc(N[C@@H]3C[C@H]4CCC[C@@H](C3)N4Cc3nccn3C)nc3sccc23)n[nH]1 [Embodiment 272, N^2-((3-exo)-9-((1-methyl-1H-imidazol-2-yl)methyl)-9-azabicyclo[3.3.1]non-3-yl)-N^4-(5-methyl-1H-pyrazol-3-yl)thieno[2,3-d]pyrimidin-2,4-diamine] was tested, and the IC50 (JAK1) was 0.6 nM, the IC50 (TYK2) was 24.7 nM and the IC50 [1, 2] was 15.3 nM.
